These molecules were tested on endogenous target monocytes in human PBMC (assay: PBMC ex vivo monocyte depletion flow cytometry assay (Example 200)). Settings: with anti-cotinine antibody (SEQ ID NO: 11/12), 18-24 hours, EC50 in molar, read-out: Ex Vivo Depletion Assay pEC50 (converted).
Type: cell-based
Procedure: A human PBMC (peripheral blood mononuclear cells) monocyte depletion flow cytometry assay was developed to screen compounds in a 384-well plate format. This assay incorporated endogenous natural killer cells to deplete endogenous target monocytes.
To screen compounds in the human PBMC monocyte depletion flow cytometry assay, 11-point dose-response curves were made from 1 mM stocks in neat DMSO by serially diluting an ARM compound of Formula (I) four-fold into a 384-well plate row-wise. These serially diluted compounds were then stamped into a flat bottom polypropylene 384-well plate (Greiner Bio-One) at 100 nL/well. Fifty microliters of 30 μg/mL anti-cotinine antibody having a heavy chain sequence of SEQ ID NO: 11 and a light chain sequence of SEQ ID NO: 12 (rabbit variable region with human IgG1 Fc domain containing a DE mutation (S239D/1332E)) that had been diluted in assay medium (RPMI 1640 (Gibco) containing 10% fetal bovine serum (Gibco), 1% Glutamax (Gibco) and 1% sodium pyruvate (Corning) was added to the wells of the plate. The plate was centrifuged for 1 min at 500 rpm (revolutions per minute) and then shaken for 5 min at room temperature. The plate was incubated for 15 minutes at 37° C./5% CO2.
Frozen PBMC cells (HemaCare BioResearch) were thawed and centrifuged at 1,200 rpm for 4 minutes. The cells were diluted to a cell density of 2×10^6 cells/mL in assay medium. Fifty microliters of the diluted cells were added to the wells of the plate. The plate was centrifuged for 1 min at 500 rpm and incubated for 18-24 hours at 37° C./5% CO2.
After 18-24 hours incubation, 2 μL of 6.25 μg human FC block (BD Pharmingen) that was diluted in assay medium was added to the wells of the plate. The plate was centrifuged for 1 minute at 500 rpm and then incubated at room temperature for 15 minutes. Five microliters of 750 nM Helix NP NIR (Biolegend) that had been diluted in assay medium was added to the wells of the plate. Nine microliters of antibody cocktail containing 1/5 diluted fluorescein isothiocyanate (FITC) labeled anti-CD45 antibody (Beckman Coulter), PC7 labeled anti-CD14 antibody (Beckman Coulter) and phyocoerythrin (PE) anti-CD4 antibody (Beckman Coulter) was then added to the wells of the plate. The plate was centrifuged for 1 min at 500 rpm and incubated for 30 minutes at 4-8° C. Samples from the plate were run on BD FACS Canto II flow cytometer and data was analyzed using FlowJo software.
ARMs compounds of Formula (I) of the invention were tested for the ability to deplete monocytes in the above assay in one or more experimental runs and the results are shown in Table 3 below. Potency of the compounds of the invention is reported as a pEC50 value. The pEC50 value is the negative log of the EC50 value, wherein the EC50 value is the half maximal effective concentration measured in molar (M). For compounds tested in more than one experimental run, the pEC50 value is reported as an average or as the individual values measured
`CC(C)N(C)[C@@H]1CC[C@H](N2CC[C@H](Nc3ncnc4ccc(C(F)(F)F)cc34)C2=O)[C@H](NC(=O)C2CCC3(CC2)CCN(CCOCCOCCNC(=O)[C@H]2CC(=O)N(C)[C@@H]2c2cccnc2)CC3)C1` [Example 93, N-((1R,2S,5R)-5-(Isopropyl(methyl)amino)-2-((S)-2-oxo-3-((6-(trifluoromethyl)quinazolin-4-yl)amino)pyrrolidin-1-yl)cyclohexyl)-3-(2-(2-(2-((2S,3S)-1-methyl-5-oxo-2-(pyridin-3-yl)pyrrolidine-3-carboxamido)ethoxy)ethoxy)ethyl)-3-azaspiro [5.5]undecane-9-carboxamide] showed an EC50 of 126 nM. `CC(C)N(C)[C@@H]1CC[C@H](N2CC[C@H](Nc3ncnc4ccc(C(F)(F)F)cc34)C2=O)[C@H](NC(=O)[C@H]2CC[C@@H](NC(=O)C3CCC4(CC3)CCN(C(=O)[C@H]3CC(=O)N(C)[C@@H]3c3cccnc3)CC4)CC2)C1` [Example 95, N-((1S,4R)-4-(((1R,2S,5R)-5-(Isopropyl(methyl)amino)-2-((S)-2-oxo-3-((6-(trifluoromethyl)quinazolin-4-yl)amino)pyrrolidin-1-yl)cyclohexyl)carbamoyl)cyclohexyl)-3-((2S,3S)-1-methyl-5-oxo-2-(pyridin-3-yl)pyrrolidine-3-carbonyl)-3-azaspiro[5.5]undecane-9-carboxamide] was tested, and the EC50 was 631 nM. Work on `CC(C)N(C)[C@@H]1CC[C@H](N2CC[C@H](Nc3ncnc4ccc(C(F)(F)F)cc34)C2=O)[C@H](NC(=O)[C@H]2CC[C@H](N3CCN(C(=O)CCOCCOCCNC(=O)[C@H]4CC(=O)N(C)[C@@H]4c4cccnc4)CC3)CC2)C1` [Example 96, (2S,3S)-N-(2-(2-(3-(4-((1R,4r)-4-(((1R,2S,5R)-5-(Isopropyl(methyl)amino)-2-((S)-2-oxo-3-((6-(trifluoromethyl)quinazolin-4-yl)amino)pyrrolidin-1-yl)cyclohexyl)carbamoyl)cyclohexyl)piperazin-1-yl)-3-oxopropoxy)ethoxy)ethyl)-1-methyl-5-oxo-2-(pyridin-3-yl)pyrrolidine-3-carboxamide] yielded an EC50 of 1 nM. With `CC(C)N(C)[C@@H]1CC[C@H](N2CC[C@H](Nc3ncnc4ccc(C(F)(F)F)cc34)C2=O)[C@H](NC(=O)[C@H]2CC[C@H](N3CCN(C4CC(CCNC(=O)[C@H]5CC(=O)N(C)[C@@H]5c5cccnc5)C4)CC3)CC2)C1` (stereo partly drawn) [Example 97, (2S,3S)-N-(2-(3-(4-((1R,4S)-4-(((1R,2S,5R)-5-(Isopropyl(methyl)amino)-2-((S)-2-oxo-3-((6-(trifluoromethyl)quinazolin-4-yl)amino)pyrrolidin-1-yl)cyclohexyl)carbamoyl)cyclohexyl)piperazin-1-yl)cyclobutyl)ethyl)-1-methyl-5-oxo-2-(pyridin-3-yl)pyrrolidine-3-carboxamide] the EC50 was 0.0631 nM. With `CC(C)N(C)[C@@H]1CC[C@H](N2CC[C@H](Nc3ncnc4ccc(C(F)(F)F)cc34)C2=O)[C@H](NC(=O)[C@H]2CC[C@@H](NC(=O)CCOCCNC(=O)CCOCCCNC(=O)[C@H]3CC(=O)N(C)[C@@H]3c3cccnc3)CC2)C1` [Example 101, (2S,3S)-N-(3-(3-((2-(3-(((1S,4s)-4-(((1R,2S,5R)-5-(Isopropyl(methyl)amino)-2-((S)-2-oxo-3-((6-(trifluoromethyl)quinazolin-4-yl)amino)pyrrolidin-1-yl)cyclohexyl)carbamoyl)cyclohexyl)amino)-3-oxopropoxy)ethyl)amino)-3-oxopropoxy)propyl)-1-methyl-5-oxo-2-(pyridin-3-yl)pyrrolidine-3-carboxamide] the EC50 was 0.631 nM. `CN1C(=O)C[C@H](C(=O)NCCOCC(=O)NCCOCCC(=O)NCCOCCC(=O)N[C@@H]2C[C@H](NC(C)(C)C)CC[C@@H]2N2CC[C@H](Nc3ncnc4ccc(C(F)(F)F)cc34)C2=O)[C@H]1c1cccnc1` [Example 106, (2S,3S)-N-(19-(((1R,2S,5R)-5-(tert-Butylamino)-2-((S)-2-oxo-3-((6-(trifluoromethyl)quinazolin-4-yl)amino)pyrrolidin-1-yl)cyclohexyl)amino)-5,12,19-trioxo-3,9, 16-trioxa-6, 13-diazanonadecyl)-1-methyl-5-oxo-2-(pyridin-3-yl)pyrrolidine-3-carboxamide] was tested, and the EC50 was 0.794 nM. `CC(C)N(C)[C@@H]1CC[C@H](N2CC[C@H](Nc3ncnc4ccc(C(F)(F)F)cc34)C2=O)[C@H](NC(=O)[C@H]2CC[C@H](NC(=O)CCO[C@H]3CC[C@@H](OCCNC(=O)[C@H]4CC(=O)N(C)[C@@H]4c4cccnc4)CC3)CC2)C1` [Example 114, (2S,3S)-N-(2-(((1S,4R)-4-(3-(((1R,4R)-4-(((1R,2S,5R)-5-(Isopropyl(methyl)amino)-2-((S)-2-oxo-3-((6-(trifluoromethyl)quinazolin-4-yl)amino)pyrrolidin-1-yl)cyclohexyl)carbamoyl)cyclohexyl)amino)-3-oxopropoxy)cyclohexyl)oxy)ethyl)-1-methyl-5-oxo-2-(pyridin-3-yl)pyrrolidine-3-carboxamide] gave an EC50 of 2.51 nM. `CC(C)N(C)[C@@H]1CC[C@H](N2CC[C@H](Nc3ncnc4ccc(C(F)(F)F)cc34)C2=O)[C@H](NC(=O)[C@H]2C[C@H](NC(=O)CCO[C@H]3CC[C@@H](OCCNC(=O)[C@H]4CC(=O)N(C)[C@@H]4c4cccnc4)CC3)C2)C1` [Example 116, (2S,3S)-N-(2-(((1S,4R)-4-(3-(((1R,3R)-3-(((1R,2S,5R)-5-(Isopropyl(methyl)amino)-2-((S)-2-oxo-3-((6-(trifluoromethyl)quinazolin-4-yl)amino)pyrrolidin-1-yl)cyclohexyl)carbamoyl)cyclobutyl)amino)-3-oxopropoxy)cyclohexyl)oxy)ethyl)-1-methyl-5-oxo-2-(pyridin-3-yl)pyrrolidine-3-carboxamide] was tested, and the EC50 was 0.0398 nM. Molecule `CC(C)N(C)[C@@H]1CC[C@H](N2CC[C@H](Nc3ncnc4ccc(C(F)(F)F)cc34)C2=O)[C@H](NC(=O)[C@H]2C[C@H](NC(=O)CCO[C@H]3CC[C@H](OCCNC(=O)[C@H]4CC(=O)N(C)[C@@H]4c4cccnc4)CC3)C2)C1` [Example 117] has an EC50 of 3.98 nM. With `CC(C)N(C)[C@@H]1CC[C@H](N2CC[C@H](Nc3ncnc4ccc(C(F)(F)F)cc34)C2=O)[C@H](NC(=O)CCOCCOCCNC(=O)[C@@H]2CCCN2CCOCCNC(=O)[C@H]2CC(=O)N(C)[C@@H]2c2cccnc2)C1` [Example 118, (S)-N-(2-(2-(3-(((1R,2S,5R)-5-(Isopropyl(methyl)amino)-2-((S)-2-oxo-3-((6-(trifluoromethyl)quinazolin-4-yl)amino)pyrrolidin-1-yl)cyclohexyl)amino)-3-oxopropoxy)ethoxy)ethyl)-1-(2-(2-((2S,3S)-1-methyl-5-oxo-2-(pyridin-3-yl)pyrrolidine-3-carboxamido)ethoxy)ethyl)pyrrolidine-2-carboxamide] the EC50 was 15.8 nM. For `CN1C(=O)C[C@H](C(=O)NCCOCCOCCC(=O)N[C@H]2CC[C@@H](C(=O)N[C@@H]3C[C@H](NC(C)(C)C)CC[C@@H]3N3CC[C@H](Nc4ncnc5ccc(C(F)(F)F)cc45)C3=O)CC2)[C@H]1c1cccnc1` [Example 120, (2S,3S)-N-(2-(2-(3-(((1S,4s)-4-(((1R,2S,5R)-5-(tert-Butylamino)-2-((S)-2-oxo-3-((6-(trifluoromethyl)quinazolin-4-yl)amino)pyrrolidin-1-yl)cyclohexyl)carbamoyl)cyclohexyl)amino)-3-oxopropoxy)ethoxy)ethyl)-1-methyl-5-oxo-2-(pyridin-3-yl)pyrrolidine-3-carboxamide], the EC50 was 1.26 nM. For `CC(C)N(C)[C@@H]1CC[C@H](N2CC[C@H](Nc3ncnc4ccc(C(F)(F)F)cc34)C2=O)[C@H](NC(=O)c2cccc(NCCOCCOCCOCCOCCNC(=O)[C@H]3CC(=O)N(C)[C@@H]3c3cccnc3)n2)C1` [Example 123, N-((1R,2S,5R)-5-(Isopropyl(methyl)amino)-2-((S)-2-oxo-3-((6-(trifluoromethyl)quinazolin-4-yl)amino)pyrrolidin-1-yl)cyclohexyl)-6-((1-((2S,3S)-1-methyl-5-oxo-2-(pyridin-3-yl)pyrrolidin-3-yl)-1-oxo-5,8,11,14-tetraoxa-2-azahexadecan-16-yl)amino)picolinamide], the EC50 was 15.8 nM.
